Test results from patent publication US5500424A, “Pyrimidine and pyridine derivatives, their production and use” (Nihon Nohyaku Co., Ltd., priority 1993, dated 1996).

Columns and labels:
[1] = system: hamsters fed on a high-cholesterol diet; test: Serum cholesterol lowering activity in hamsters fed on a high-cholesterol diet; type: in vivo, Male Syrian hamsters; conditions: Mesocricetus auratus, 30 mg/kg per day for 4 days, 24 hours after last administration, read-out: Reduction rate of total serum cholesterol concentration
Method: Serum cholesterol lowering activity in hamsters fed on a high-cholesterol diet
Male Syrian hamsters of 10-week-old were divided into three groups. The first group (normal group) was fed an ordinary diet for 4 days. The second group (control group) was fed a high cholesterol diet (containing 0.5% cholesterol and 8.0% coconut oil) for 4 days. The third group (treated group) was fed a high cholesterol diet and was treated with a compound for 4 days. Simultaneously with the beginning of the above feeding, the compound was suspended in a 0.5% carboxymethyl cellulose solution and administered to the treated group, in a dose of 30 mg (in terms of the compound) per kg of body weight per day for 4 days. A 0.5% carboxymethyl cellulose solution was also administered to the normal group and the control group in the same manner as above.
After 24 hours of the last administration, blood was collected and the cholesterol concentration in serum was measured by an enzymatic method. The reduction rate of the total serum cholesterol concentration was calculated from values obtained for the three groups by the following equation. [formula] wherein A: the serum cholesterol concentration of the control group.
B: the serum cholesterol concentration of the treated group.
C: the serum cholesterol concentration of the normal group.

[2] = system: cholesterol esterification in macrophages (J774 A.I cells); test: Inhibitory effect on cholesterol esterification in macrophages; type: cell-based; conditions: Mus musculus, AcLDL-loaded J774 A.I cells, read-out: Inhibition rate
Method: Inhibitory effect on cholesterol esterification in macrophages
The test was carried out by a modification of the method of Goldstein et al. [Pro. Nat. Acad. Sci. U.S.A. 71, 4288 (1974)]. J774 A.I cells, the mouse macrophage-like cell line, were suspended in Dulbecco's modified Eagle's medium (DMEM) containing 10% fetal calf serum (FCS), in a proportion of 3×10^5 cells per 2 ml and were seeded into 6-well plates. The cells were cultured under a humidified atmosphere of 95% air/5% CO2 at 37° C. for 24 hours. The medium was replaced by 1 ml of DMEM containing 10% of FCS and 50 μg/ml of acetylated human low density lipoprotein (AcLDL), followed by culturing for 16 hours. Five microliters of each compound dissolved in dimethyl sulfoxide was added to the medium, and the cells were cultured for another 2 hours. Then, [^14 C]oleate (2×10^6 dpm/well) bovine serum albumin complex was added in the medium. After 2 hours of culture, cells were collected and the cholesterol-esterifying activity was determined by measuring radioactivity incorporated into cholesterol esters in the cells. The recovery of the cholesterol esters was determined by the addition of [^3 H]cholesteryl oleate, and the esterifying activity was corrected using the recovery. As to the inhibitory activity on cholesterol esterification of the compound to be tested, the inhibition rate was calculated by the following equation. [formula] wherein A: the cholesterol-esterifying activity of AcLDL-loaded cells to which the compound to be tested was added.
B: the cholesterol-esterifying activity of AcLDL-loaded cells to which dimethyl sulfoxide was added.

[3] = molecular target: T1, acyl-CoA:cholesterol acyltransferase (ACAT) (Oryctolagus cuniculus, UniProt G1SFD9); test: Inhibitory activity on acyl-CoA:cholesterol acyltransferase (ACAT); type: biochemical, white rabbit; conditions: rabbit intestinal mucosa microsomes, read-out: Inhibition rate
T1 construct: The intestinal mucosa of a white rabbit was homogenized and microsomal fraction was obtained; from tissue; host or cells: white rabbit intestinal mucosa, microsomal fraction
T1 sequence (G1SFD9 1-524): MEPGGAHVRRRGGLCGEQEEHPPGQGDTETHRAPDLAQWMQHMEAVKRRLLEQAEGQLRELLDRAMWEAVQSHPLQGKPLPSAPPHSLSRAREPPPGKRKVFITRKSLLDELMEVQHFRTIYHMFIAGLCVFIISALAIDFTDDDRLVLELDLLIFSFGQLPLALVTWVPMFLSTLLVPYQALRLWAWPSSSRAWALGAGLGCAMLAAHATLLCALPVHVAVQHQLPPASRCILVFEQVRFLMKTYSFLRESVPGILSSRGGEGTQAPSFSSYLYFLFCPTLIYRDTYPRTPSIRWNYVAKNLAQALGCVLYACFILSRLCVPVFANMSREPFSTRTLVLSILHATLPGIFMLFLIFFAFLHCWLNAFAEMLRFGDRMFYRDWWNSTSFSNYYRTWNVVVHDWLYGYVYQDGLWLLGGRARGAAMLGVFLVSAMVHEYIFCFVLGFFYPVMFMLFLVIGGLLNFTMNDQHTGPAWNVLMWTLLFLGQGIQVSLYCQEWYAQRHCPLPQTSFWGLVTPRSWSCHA
Method: Inhibitory activity on acyl-CoA:cholesterol acyltransferase (ACAT)
The enzyme used in the test was prepared according to the method of Heider et al. [J. Lipid, Res. 24, 1127 (1983)]. The intestinal mucosa of a white rabbit was homogenized and microsomal fraction was obtained by stepwise centrifugation. The microsomal fraction was suspended in 0.154M phosphate buffer (pH 7.4) and stored at -80° C. until use.
ACAT activity was determined by a modification of the method of Helgerud et al. [J. Lipid Res. 22, 271 (1981)] by measuring radioactivity incorporated into cholesterol esters from [1-^14 C]oleyl-CoA, as an indication. As to the ACAT-inhibitory activity of each compound to be tested, the inhibition rate was calculated by the following equation. [formula]

Structure (SMILES): CC(C)c1cccc(C(C)C)c1NC(=O)Nc1cnc(-c2ccccc2)nc1-c1ccccc1Cl [Compound 15, N-[4-(2-Chlorophenyl)-2-phenylpyrimidin-5-yl]-N'-(2,6-diisopropylphenyl)urea]
- inhibition in vivo at 30 mg/kg [1]: 57.6%
- inhibition at 0.3 µM [2]: 29.5%
- inhibition at 1 µM [2]: 73.3%
- inhibition at 0.01 µM [3]: 67.6%
- inhibition at 1 µM ([3]; 1 μM): 99.5%

Structure (SMILES): CC(C)c1cccc(C(C)C)c1NC(=O)Nc1cnc(-c2ccccc2)nc1-c1ccccc1 [Compound 32, N-(2,6-Diisopropylphenyl)-N'-(2,4-diphenylpyrimidin-5-yl)urea]
- inhibition in vivo at 30 mg/kg [1]: 63.7%
- inhibition at 0.3 µM [2]: 58%
- inhibition at 1 µM [2]: 74.3%
- inhibition at 0.01 µM [3]: 73.5%

Structure (SMILES): Cc1ccccc1-c1nc(-c2ccccc2)ncc1NC(=O)Nc1c(C(C)C)cccc1C(C)C [Compound 36, N-(2,6-Diisopropylphenyl)-N'-[4-(2-methylphenyl)-2-phenylpyrimidin-5-yl]urea]
- inhibition in vivo at 30 mg/kg [1]: 63.4%
- inhibition at 0.3 µM [2]: 51.6%
- inhibition at 0.01 µM [3]: 72.9%

Structure (SMILES): CCc1cccc(CC)c1NC(=O)Nc1cnc(-c2ccccc2)nc1-c1ccccc1C(F)(F)F [Compound 37, N-(2,6-Diethylphenyl)-N'-[2-phenyl-4-(2-trifluoromethylphenyl)pyrimidin-5-yl]urea]
- inhibition in vivo at 30 mg/kg [1]: 63.3%
- inhibition at 0.3 µM [2]: 67.1%
- inhibition at 1 µM [2]: 87.2%
- inhibition at 0.01 µM [3]: 72.3%

Structure (SMILES): CCc1cccc(CC)c1NC(=O)Nc1cnc(N2CCCCC2)nc1-c1ccccc1Cl [Compound 55, N-[4-(2-Chlorophenyl)-2-(N-piperidino)pyrimidin-5-yl]-N'-(2,6-diethylphenyl)urea]
- inhibition in vivo at 30 mg/kg [1]: 77.5%
- inhibition at 0.3 µM [2]: 34.9%
- inhibition at 0.01 µM [3]: 75.7%
